# Assays:
# [1] = target: Full length human recombinant HDAC11 (Homo sapiens (Human), UniProt Q96DB2); assay: Enzymatic HDAC11 assay, electrophoretic mobility shift; assay type: biochemical; conditions: substrate FAM-RHKK(tri-fluor-Ac)-NH2, read-out: HDAC11 IC50 Range
# Method in brief: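 Baculovirus-expressed enzyme (10 nM) with 2 μM FAM-RHKK(tri-fluor-Ac)-NH2 in 100 mM HEPES pH 7.5, 25 mM KCl, 0.1% BSA, 0.01% Triton X-100, 1% DMSO at 25 °C. Substrate and product separated by microfluidic electrophoresis; inhibition from product/(substrate+product) ratio. IC50 by 4-parameter fit over 12 concentrations.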
# HEL 92.1.7 cells = assay: Cell proliferation assay (CCK8); assay type: cell-based; conditions: HEL 92.1.7, 48 h
# Procedure: (§1) This example describes inhibition of in vitro cell proliferation with exemplary HDAC11 inhibitors. The effects of selective HDAC11 inhibitors on cell proliferation were measured in cell lines containing the MPN-associated mutations MPL W515L (Ba/F3 MPL W515L) and JAK2 V617F (Ba/F3 JAK2 V617F, HEL 92.1.7, SET-2). HEL 92.1.7 and SET-2 cells were purchased from the ATCC and DSMZ, respectively. Ba/F3 cells overexpressing either MPLW515L or JAK2V617F, which were cytokine independent, were generated by transforming Ba/F3 cells with retroviruses overexpressing either MPL W515L or JAK2V617F. For survival assays, cells were seeded in 96-well plates at the density of 0.1 million/ml with addition of indicated compounds and incubated at 37° C. for 48 h. CCK8 solution (Dojindo, Rockville, Md.) was added and absorbance at 450 nm was measured after 3 hours of incubation. Readings were normalized to dimethylsulfoxide (DMSO)-treated wells.
# SET-2 cells = assay: Cell proliferation assay (CCK8); assay type: cell-based; conditions: SET-2 (FIG. 4 legend)
# Procedure: as §1
# Sequence of Full length human recombinant HDAC11 (Q96DB2 whole entry): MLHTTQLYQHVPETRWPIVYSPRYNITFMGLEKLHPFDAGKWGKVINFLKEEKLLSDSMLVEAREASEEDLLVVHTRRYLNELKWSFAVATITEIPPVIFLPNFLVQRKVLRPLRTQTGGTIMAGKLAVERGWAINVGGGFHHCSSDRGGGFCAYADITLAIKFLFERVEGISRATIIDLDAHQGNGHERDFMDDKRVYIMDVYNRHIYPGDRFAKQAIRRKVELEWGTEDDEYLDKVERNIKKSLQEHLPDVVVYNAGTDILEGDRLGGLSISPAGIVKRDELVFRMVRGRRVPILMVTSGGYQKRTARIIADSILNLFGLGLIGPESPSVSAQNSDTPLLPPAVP
Compound,IC50 [1] [nM],growth of the HEL 92.1.7 cell line (HEL 92.1.7 cells),growth of SET-2 cell line (SET-2 cells)
"O=C(NO)c1cccc2c1CCC1(CCN(c3ccccc3C(F)(F)F)C1=O)C2 (stereo not drawn) [II-90, N-hydroxy-2′-oxo-1′-(2-(trifluoromethyl)phenyl)-3,4-dihydro-1H-spiro[naphthalene-2,3′-pyrrolidine]-5-carboxamide]",> 1000,–,–
"CC(=O)N1CCC2(CCc3c(cccc3C(=O)NO)O2)CC1 [II-91, 1′-acetyl-N-hydroxyspiro[chromane-2,4′-piperidine]-5-carboxamide]",> 1000,–,–
"O=C(NO)c1cccc2c1CCC1(CCN(c3ccccc3)CC1)O2 [II-92, N-hydroxy-1′-phenylspiro[chromane-2,4′-piperidine]-5-carboxamide]",> 1000,–,–
"O=C(NO)c1cccc2c1CCC1(CCN(c3ccc(F)cc3)CC1)O2 [II-93, 1′-(4-fluorophenyl)-N-hydroxyspiro[chromane-2,4′-piperidine]-5-carboxamide]",> 1000,–,–
"N#CC[C@H](C1CCCC1)n1cc(-c2ncnc3[nH]ccc23)cn1 [ruxolitinib, reference compound]",–,inhibited,inhibited

# Reference: patent publication US10508088B2, “Methods using HDAC11 inhibitors” (FORMA Therapeutics, Inc., priority 2016, dated 2019)
